Values quoted from earlier work, collected in US20220387443A1, “RESPIRATORY SYNCYTIAL VIRUS FUSION PROTEIN INHIBITOR COMPOSITIONS AND METHODS FOR THE TREATMENT AND PROPHYLAXIS OF RSV DISEASES USING THE SAME” (priority 2019, published 2022).

Tests used:
[1] = system: RSV infection; conditions: selected infants, intramuscularly 15 mg/kg once a month for the duration of RSV season
[2] = system: RSV; conditions: human RSV viral challenge studies

Compound | reduction of hospitalization rate caused by RSV infection [1] | reduction of viral load [2] [log 10]
palivizumab: humanized monoclonal antibody against RSV fusion (F) protein | 45-55% | 
Cc1cn2nc([C@@H]3CCCCN3C(=O)c3cc(Cl)ccc3NS(C)(=O)=O)cc2nc1N1CC[C@H](N)C1 [GS-5806] |  | 4.2
